From patent publication US9624200B2, “Therapeutic piperazines” (DART NEUROSCIENCE (CAYMAN) LTD., priority 2006, dated 2017)

Legend:
[1] = tested on: contextual memory (freezing) in C57BL/6 male mice; experiment: Contextual Memory Assay: Fear Conditioning; assay type: in vivo, mouse; conditions: for freezing (memory score) 24 hours after training: 2 training trials, vehicle 22.3+3.2%
Text: Contextual memory is a form of Pavlovian fear conditioning in which a naive mouse is placed into a novel chamber (context) containing distinct visual, olfactory and tactile cues. After several minutes of acclimation, the mouse receives a brief, mild electric shock to its feet. From this negative experience, the mouse will remember for months that that chamber is dangerous. When placed back into the same context at some later time after training, the mouse's natural response to danger is to “freeze,” sitting stone still for many seconds. This is similar to what happens to humans when they experience fear. The percent of time during an observation period that the mouse spends frozen represents a quantitative measure (memory score) of its memory of the context.
Young-adult (10-12 weeks old) C57BL/6 male mice and Sprague Dawley male rats of 250-300 g (Taconic, N.Y.) were used. Mice were group-housed (5 mice) in standard laboratory cages while rats were housed in pairs and maintained on a 12:12 light-dark cycle. The experiments were always conducted during the light phase of the cycle. With the exception of testing times, the mice had ad lib access to food and water. […]
To assess contextual memory, a modified contextual fear conditioning task originally developed for evaluation of memory in CREB knock-out mice was used (Bourtchouladze, et. aL, Cell, 1994, 79, 59-68). […] 24 hours after training, the mouse was placed into the same training chamber and contextual memory was assessed by scoring freezing behavior (‘freezing’ serves as memory score). […]
All experiments were designed and performed in a balanced fashion, meaning that (i) for each experimental condition (e.g. a specific dose-effect) an equal number of experimental and control mice was used; (ii) each experimental condition was replicated 2-3 independent times, and replicate days were added to generate final number of subjects. […] Data were analyzed by Student's unpaired t test using a software package (Statview 5.0.1; SAS Institute, Inc). All values in the text and figures are expressed as mean+SEM. […]

[2] = tested on: PDE4 from human U-937 cells; experiment: PDE4 Inhibition Assay; assay type: biochemical; conditions: 1 μM cAMP, [3H]-cAMP, read-out: Potency Class (Inhibitory Concentration) in the PDE4 assay
Outline: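 U-937-derived PDE4 (2 μg/ml) was preincubated with compound in Tris-HCl pH 7.5 for 15 min at 25° C. It then reacted 20 min with cAMP plus [^3H]-cAMP. [^3H]-AMP was converted to [^3H]-adenosine by nucleotidase, resin-separated and counted; IC50 came from percent inhibition.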

SMILES | IC50 [2] [nM] | also measured
COc1ccc(N2CCN[C@@H](CC3CCCCC3)C2)cc1OC1CCCC1 [Compound 126, (S)-3-Cyclohexylmethyl-1-(3-cyclopentyloxy-4-methoxy-phenyl)-piperazine] |  | effect on contextual memory ([1]; 0.1 mg/kg injected 20 minutes before training): no significant effect; freezing (memory score) 24 hours after training ([1]; 1 mg/kg injected 20 minutes before training, p<0.05): 32.5+3.2%; freezing (memory score) 24 hours after training ([1]; 10 mg injected 20 minutes before training, p<0.005): 38.3%
COc1ccc(N2CCN(C(=O)Cc3cnc[nH]3)[C@@H](Cc3ccccc3)C2)cc1OC(C)C [Compound 327, (S)-1-(2-benzyl-4-(3-isopropoxy-4-methoxyphenyl)piperazin-1-yl)-2-(1H-imidazol-5-yl)ethanone] | < 200 | 
COc1ccc(N2CCN(CC(=O)O)[C@@H](Cc3ccccc3)C2)cc1OC(C)C [Compound 266] | 200 to 1000 | 
CCOc1ccc(N2CCN(C(=O)Cc3n[nH]c(C)n3)[C@@H](Cn3cccn3)C2)cc1OC1CCCC1 [Compound 257] | < 200 | 
COc1ccc(N2CCN(C(=O)Cc3ccncc3)[C@@H](Cc3ccccc3)C2)cc1OC1CCCC1 [Compound 386, (S)-1-(2-benzyl-4-(3-(cyclopentyloxy)-4-methoxyphenyl)piperazin-1-yl)-2-(pyridin-4-yl)ethanone] | > 1000 | 
COc1ccc(N2CCN(Cc3cccc(O)c3)[C@@H](Cc3ccccc3)C2)cc1OC1CCCC1 [Compound 361] | > 1000 | 
CCc1nn(C(C)C)c2cc(N3CCN(C(=O)Cc4nc(C)n[nH]4)[C@@H](Cc4ccccc4)C3)ccc12 [Compound 381, (S)-1-(2-benzyl-4-(3-ethyl-1-isopropyl-1H-indazol-6-yl)piperazin-1-yl)-2-(3-methyl-1H-1,2,4-triazol-5-yl)ethanone] | < 200 | 
O=C(Cc1c[nH]cn1)N1CCN(c2ccc(OC(F)F)c(OC3CCC3)c2)C[C@@H]1Cc1ccccc1 [Compound 344, (S)-1-(2-benzyl-4-(3-cyclobutoxy-4-(difluoromethoxy)phenyl)piperazin-1-yl)-2-(1H-imidazol-4-yl)ethanone] | < 200 | 
Cc1n[nH]c(CC(=O)N2CCN(c3ccc(OC(F)F)c(OC(F)F)c3)C[C@@H]2Cc2ccccc2)n1 [Compound 332, (S)-1-(2-benzyl-4-(3,4-bis(difluoromethoxy)phenyl)piperazin-1-yl)-2-(3-methyl-1H-1,2,4-triazol-5-yl)ethanone] | < 200 | 
